Measurements as given in patent publication US11376307B2, “Compositions and methods of treating cancer with glycomimetic peptides” (SUSAVION BIOSCIENCES, INC., priority 2018, dated 2022).
Entries after “also recorded” stand apart in the source; their conditions may differ. Positions of bridges follow the written chain, without caps; N, C: chain ends. Chains are numbered I, II in the order given.

Tests used:
[1] = Antigenicity assay of mouse sera; design: species or system mice; settings: alternate-day injections for 3 months, 1 nmol/g
Description: FIG. 10. Test for antigenicity of svL4 and sv6D. Anti-sera were generated in rabbits against KLH-conjugates of the sequences of svL4 or sv6D and diluted 1:10. Mouse sera were collected after alternate-day injections of svL4 over 3 months, diluted 1:1 with PBS and added to protein-A/G-coated wells. Biotinylated svL4 or sv6D was added to wells and bound peptide was detected with a streptavidin-peroxidase conjugate. The figure includes average values for sera from 8 treated mice in each group assayed separately.
Antigenicity Assay The sequence of one arm of svL4 or sv6D was conjugated to keyhole limpet hemocyanin (KLH) and injected into rabbits at two-week intervals (total of 3 injections) (New England Peptide, Inc., Gardner, Mass.). Two weeks after the final injection, sera were prepared. Mice were injected with a peptide every other day over a period of 3 months (total ˜45 injections), blood was then collected by cardiac puncture and sera were prepared. Rabbit serum was diluted 1:10, whereas mouse serum was diluted 1:1 or 1:5 with PBS containing 0.05% Tween-20 (PBST). Sera were incubated in microtiter wells coated with protein A/G (Pierce) for 90 min. The wells were washed three times with PBST, and then incubated with 50 μL of 1 μM biotinylated svL4 or sv6D for 1 h. […]

DC-SIGN = molecular target: T1, DC-SIGN (Homo sapiens, UniProt Q9NNX6); test: Solid-phase binding assay, survey of other receptors
T1 construct: The extracellular domains of receptors, which were fused with the Fc domain of immunoglobulin IgG; purchased R&D Systems
T1 sequence (Q9NNX6 59-404 limits assumed): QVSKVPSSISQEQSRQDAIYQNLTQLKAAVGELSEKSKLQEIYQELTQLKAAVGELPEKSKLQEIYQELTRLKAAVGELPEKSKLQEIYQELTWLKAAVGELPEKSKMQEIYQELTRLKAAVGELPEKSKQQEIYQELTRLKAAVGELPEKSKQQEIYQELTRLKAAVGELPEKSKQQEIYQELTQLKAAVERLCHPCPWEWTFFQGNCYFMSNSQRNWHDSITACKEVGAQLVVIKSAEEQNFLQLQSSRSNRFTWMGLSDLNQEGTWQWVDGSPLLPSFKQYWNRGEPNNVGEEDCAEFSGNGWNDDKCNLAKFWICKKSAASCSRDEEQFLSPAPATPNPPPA
Description: (§1) Binding Assays Solid-phase binding assays were performed with streptavidin-, protein A/G-, or Nickel-coated microtiter plates (Pierce). His-tagged or Fc-fusion recombinant receptors (R&D Systems, Minneapolis, Minn.) were reconstituted in PBS. Sufficient receptors were added to wells to saturate the coating. His-tagged receptors were added to each well at a 5-fold excess over the stated capacity of the Ni coating to minimize non-specific binding of the peptide. Wells were washed three times with binding buffer (25 mM Tris HCl, pH 7.4, 150 mM NaCl, 0.05% Tween-20) to remove unbound receptor and 50 μL of 2 μM biotinylated peptide in binding buffer were added and allowed to incubate for 1 h. The wells were washed four times with binding buffer and then incubated with 50 μL of 1 μg/mL streptavidin conjugated with peroxidase (Sigma-Aldrich) for 1 h. The wells were washed five times with binding buffer and 50 μL of peroxidase substrate (1-Step™ Ultra TMB, Pierce) were added. After several minutes to allow color development, the reaction was stopped with 50 μL 1 M H3PO4 and absorbance was measured at 450 nm. Bound streptavidin was quantitated by the specific activity of peroxidase (absorbance/ng protein conjugate/min) under the conditions of the assay.
(§2) Solid-phase binding assays were performed with recombinant human receptors. Three variations of the binding assay were used in this study, all of which allowed the arms of the tetravalent peptide to have full flexibility. (i) Biotinylated peptide was bound in microtiter wells coated with streptavidin and incubated with recombinant human receptors. After extensive washing, the bound receptor was measured by peroxidase conjugated to a receptor-specific antibody. (ii) The extracellular domains of receptors, which were fused with the Fc domain of immunoglobulin IgG, were bound in wells coated with protein A/G. Biotinylated peptide was incubated with the receptors and, after extensive washing, bound peptide was measured with streptavidin conjugated with peroxidase. Or (iii), recombinant receptors with a poly-His tag were bound to Nickel-coated wells and incubated with biotinylated peptide. svL4 and sv6D contain His residues (FIGS. 1A, 1C) and can bind to the Ni coating, which was minimized by adding sufficient poly-His-tagged receptor to saturate the Ni coating.
(§3) Of the receptors we have assayed thus far, the peptides bound to those specific for GalNAc, which included CLEC4F, a GalNAc-binding receptor expressed by Kupffer cells that is also homologous to ASGPR-1 [50].

CD44 = molecular target: T2, CD44 (Homo sapiens, UniProt P16070); test: as above
T2 construct: The extracellular domains of receptors, which were fused with the Fc domain of immunoglobulin IgG; purchased R&D Systems
Description: as §1, §2, §3

IL-4R = molecular target: T3, IL-4R (Homo sapiens, UniProt P24394); test: as above
T3 construct: The extracellular domains of receptors, which were fused with the Fc domain of immunoglobulin IgG; purchased R&D Systems
T3 sequence (P24394 26-232 limits assumed): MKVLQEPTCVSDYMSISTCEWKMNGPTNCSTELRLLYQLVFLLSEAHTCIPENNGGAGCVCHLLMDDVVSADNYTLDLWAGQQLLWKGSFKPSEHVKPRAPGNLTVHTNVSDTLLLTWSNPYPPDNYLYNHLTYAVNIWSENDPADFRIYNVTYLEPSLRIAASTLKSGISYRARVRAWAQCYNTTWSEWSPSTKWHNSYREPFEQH
Description: as §1, §2, §3

Siglec-1 = molecular target: T4, Siglec-1 (Homo sapiens, UniProt Q9BZZ2); test: as above
T4 construct: The extracellular domains of receptors, which were fused with the Fc domain of immunoglobulin IgG; purchased R&D Systems
Description: as §1, §2, §3

CLEC9A = molecular target: T5, CLEC9A (Homo sapiens, UniProt Q6UXN8); test: as above
T5 construct: The extracellular domains of receptors, which were fused with the Fc domain of immunoglobulin IgG; purchased R&D Systems
Description: as §1, §2, §3

CLEC4F = test: as above; design: species or system human
Description: as §1, with “The wells were washed five times with binding buffer and 50 μL of peroxidase substrate (1-Step™ Ultra TMB, Pierce) were added.” left out
Solid-phase binding assays were performed with recombinant human receptors. […] After extensive washing, the bound receptor was measured by peroxidase conjugated to a receptor-specific antibody. […]

T2 sequence (P16070 21-220 limits assumed): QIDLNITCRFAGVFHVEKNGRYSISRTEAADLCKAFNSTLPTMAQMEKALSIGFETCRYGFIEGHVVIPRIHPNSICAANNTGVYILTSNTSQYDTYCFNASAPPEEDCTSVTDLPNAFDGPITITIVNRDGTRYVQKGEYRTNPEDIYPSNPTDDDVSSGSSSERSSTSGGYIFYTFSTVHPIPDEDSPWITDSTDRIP
T4 sequence (Q9BZZ2 20-1641 limits assumed): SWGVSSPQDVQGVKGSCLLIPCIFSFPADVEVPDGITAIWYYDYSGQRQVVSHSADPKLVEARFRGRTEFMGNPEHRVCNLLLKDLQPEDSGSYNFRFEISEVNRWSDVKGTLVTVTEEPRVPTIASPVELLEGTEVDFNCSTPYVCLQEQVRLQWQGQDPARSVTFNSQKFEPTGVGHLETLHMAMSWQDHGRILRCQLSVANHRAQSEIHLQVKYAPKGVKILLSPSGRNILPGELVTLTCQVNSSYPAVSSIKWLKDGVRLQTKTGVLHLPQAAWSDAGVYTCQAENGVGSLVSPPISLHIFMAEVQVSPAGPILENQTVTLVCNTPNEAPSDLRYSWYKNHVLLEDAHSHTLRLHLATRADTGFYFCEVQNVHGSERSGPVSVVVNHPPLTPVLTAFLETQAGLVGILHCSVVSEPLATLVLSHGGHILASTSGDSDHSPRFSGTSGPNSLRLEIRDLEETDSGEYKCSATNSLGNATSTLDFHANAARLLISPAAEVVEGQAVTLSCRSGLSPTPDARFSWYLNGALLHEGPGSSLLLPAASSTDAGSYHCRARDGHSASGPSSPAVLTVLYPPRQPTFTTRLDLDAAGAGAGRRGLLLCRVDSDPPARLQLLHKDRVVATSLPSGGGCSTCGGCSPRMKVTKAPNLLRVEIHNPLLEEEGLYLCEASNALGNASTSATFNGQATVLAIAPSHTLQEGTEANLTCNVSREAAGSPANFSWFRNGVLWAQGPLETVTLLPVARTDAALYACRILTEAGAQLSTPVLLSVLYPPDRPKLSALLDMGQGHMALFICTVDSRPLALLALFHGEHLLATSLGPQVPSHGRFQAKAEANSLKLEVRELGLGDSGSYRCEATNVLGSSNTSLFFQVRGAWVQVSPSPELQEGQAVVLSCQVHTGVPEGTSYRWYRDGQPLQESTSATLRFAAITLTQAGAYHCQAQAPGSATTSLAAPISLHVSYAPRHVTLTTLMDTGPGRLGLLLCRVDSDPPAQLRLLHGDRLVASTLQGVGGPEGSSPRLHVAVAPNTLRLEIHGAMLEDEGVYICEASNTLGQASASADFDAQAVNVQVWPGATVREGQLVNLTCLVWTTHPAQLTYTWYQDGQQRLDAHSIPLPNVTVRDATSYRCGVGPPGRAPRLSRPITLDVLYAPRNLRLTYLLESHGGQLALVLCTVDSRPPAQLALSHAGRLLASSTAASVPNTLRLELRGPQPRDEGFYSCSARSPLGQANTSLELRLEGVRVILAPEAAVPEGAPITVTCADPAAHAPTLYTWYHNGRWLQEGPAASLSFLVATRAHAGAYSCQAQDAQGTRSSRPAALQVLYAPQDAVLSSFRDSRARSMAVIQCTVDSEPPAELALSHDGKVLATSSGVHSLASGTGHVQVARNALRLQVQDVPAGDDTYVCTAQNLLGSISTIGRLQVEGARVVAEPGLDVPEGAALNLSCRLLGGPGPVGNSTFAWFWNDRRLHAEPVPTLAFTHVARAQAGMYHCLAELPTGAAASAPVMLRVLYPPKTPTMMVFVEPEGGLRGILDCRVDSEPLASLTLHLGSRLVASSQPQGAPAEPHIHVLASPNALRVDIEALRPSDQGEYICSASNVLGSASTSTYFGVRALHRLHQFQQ
T5 sequence (Q6UXN8 57-241 limits assumed): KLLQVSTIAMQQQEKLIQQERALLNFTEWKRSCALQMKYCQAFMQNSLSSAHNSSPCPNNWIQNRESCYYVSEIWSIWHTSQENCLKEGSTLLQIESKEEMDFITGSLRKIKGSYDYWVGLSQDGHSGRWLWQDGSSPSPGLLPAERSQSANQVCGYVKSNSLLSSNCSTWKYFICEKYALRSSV

| Substance | Antibodies that bind the peptides in mouse sera (antigenicity) [1] | Binding to DC-SIGN (DC-SIGN) | Binding to CD44 (CD44) | Binding to IL-4R (IL-4R) | Binding to Siglec-1 (Siglec-1) | Binding to CLEC9A (CLEC9A) | Binding to CLEC4F (CLEC4F) |
| --- | --- | --- | --- | --- | --- | --- | --- |
| I: H-VQATQSNQHTPRGGGSKK-NH2 / II: H-VQATQSNQHTPRGGGSK / III: H-VQATQSNQHTPRGGGS / IV: H-VQATQSNQHTPRGGGS (amide I:17-IV:C, I:18-II:C, II:17-III:C) [svL4] | negative | did not bind significantly | not detected | not detected | did not bind significantly | did not bind significantly | bound |
| I: H-NQHTPRGGGSKK-NH2 / II: H-NQHTPRGGGSK / III: H-NQHTPRGGGS / IV: H-NQHTPRGGGS (amide I:11-IV:C, I:12-II:C, II:11-III:C) [sv6D] | negative; also recorded: not antigenic | did not bind significantly | not detected | not detected | did not bind significantly | did not bind significantly | bound |
